Measured values published in patent US20230130103A1, “TARGETED PHARMACOLOGICAL THERAPEUTICS IN UVEAL MELANOMA” (Washington University, priority 2017, published 2023).
“Also recorded” adds a separate entry of the source. Starred links: 1 amine or outer side, 2 acyl side, 3 side chain; linkers in the order of their positions; H or OH if unused. Positions of bridges follow the written chain, without caps; N, C: chain ends. Non-standard residues stand in square brackets, D forms with d. Residues, ends and D or L forms follow the SMILES beside them. *: point of attachment. Leu(3R-OH,Nα-propionyl) = CCC(=O)N[C@H](C(=O)*)[C@H](O)C(C)C; X1 = CC(C)[C@@H](O[*:3])[C@H](N[*:1])C(=O)[*:2]; X2 = CC(C)[C@H](O[*:3])[C@@H](N[*:1])C(=O)[*:2]; NMeaThr = CN[C@H](C(=O)O)[C@H](C)O; dPhLac = O=C(O)[C@H](O)Cc1ccccc1; NMeA = CN[C@@H](C)C(=O)O; NMeDha = C=C(NC)C(=O)O

Columns and labels:
[1] = molecular target: T1, constitutively active Gα13 with the RGS domain of LARG (Homo sapiens, UniProt Q14344, Q226L); assay: Split luciferase complementation, Gα interaction with RGS domain of LARG; type: cell-based; settings: FIG. 1C
T1 construct: expressed in transfected cells; host or cells: HEK-293
T1 sequence (Q14344 1-377 Q226L): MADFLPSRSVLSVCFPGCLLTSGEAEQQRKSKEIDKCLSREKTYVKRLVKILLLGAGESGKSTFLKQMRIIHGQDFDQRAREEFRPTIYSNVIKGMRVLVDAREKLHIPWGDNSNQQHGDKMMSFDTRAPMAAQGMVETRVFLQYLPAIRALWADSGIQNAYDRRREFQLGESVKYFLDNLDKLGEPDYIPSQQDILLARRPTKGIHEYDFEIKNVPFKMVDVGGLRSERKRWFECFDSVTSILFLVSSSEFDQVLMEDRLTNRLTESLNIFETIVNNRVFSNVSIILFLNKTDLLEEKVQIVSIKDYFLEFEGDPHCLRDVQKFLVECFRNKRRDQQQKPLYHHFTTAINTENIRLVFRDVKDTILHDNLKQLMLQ
Excerpt: (FIG. 1A-1C) depicts the effect of FR on the activity state of Gα subunits as determined by interaction with Gβγ or RGS domains in split luciferase complementation assays. FIG. 1A Effect of FR on interaction of Gβγ2 with the indicated wild type (WT) or mutant constitutively active (Q/L) forms of Gα (q) or Gα13 (13). * p<0.01; ** p<0.05. FIG. 1B Potency of FR as a driver of interaction of Gβγ2 with wild type or mutant constitutively active Gαq. FIG. 1C Potency of FR as inhibitor of interaction of RGS2 with mutant constitutively active (Q/L) Gαq, or interaction of the RGS domain of LARG (LARG-RGS) with mutant constitutively active Gα13. FIG. 1D Potency of FR as inhibitor of signal transduction by constitutively active Gαq or Gα13 detected with an SRE(L) promoter-driven transcriptional reporter. Constitutively active Gαq (Q/L), constitutively active Gαq bearing the indicated FR binding site mutations, and constitutively Gα13 (Q/L) were studied.
To detect protein-protein interactions, a split luciferase complementation assays was used (23), as employed to study activation state-dependent interaction between Gα subunits and cognate binding partners (24).
Split luciferase assays were performed as described (24). […]

Gαi/q(R54K) = assay: In vitro nucleotide exchange (BODIPY-GTPγS fluorescence); type: biochemical; settings: Gαi/q(R54K) vs Gαi/q
92.1 UM cells [2] = assay: RNA-Seq global gene expression, FR vs vehicle; type: cell-based, Human; settings: 92.1 cells, 100 nM FR, p<0.001
92.1 UM cells [3] = assay: qPCR validation of FR target genes; type: cell-based, Human; settings: 92.1 cells; FIG. 10
Experimental: (§1) The results for six genes showing significant changes in expression in response to FR by RNA-Seq were validated by qPCR.
(§2) 92.1 UM cells were treated with 100 nM FR or vehicle (DMSO) in RPMI growth medium and collected after 1 and 3 d of treatment. RNA was isolated using the RNeasy Mini Kit (Qiagen) following the manufacturer's protocol and including the optional DNase I treatment step. RNA quality was assessed on a Bioanalyzer 2100 (Agilent Technologies, Santa Clara, Calif., USA). mRNA was extracted from total RNA using a Dynal mRNA Direct kit, fragmented and reverse transcribed to double stranded cDNA with random primers before addition of adapters for library preparation. Library preparation and HiSeq2500 sequencing were performed by the Washington University Genome Technology Access Center (gtac.wustl.edu). FastQ files were aligned to the transcriptome and the whole-genome with STAR. Biologic replicates were simultaneously analyzed by edgeR and Sailfish analyses of gene-level/exon-level features. Unexpressed genes and exons were removed from the analyses. Unsupervised principal component analysis and volcano plots were generated in Bioconductor using edgeR. Significance Analysis of Microarrays (SAM), Version 4.0 was used to generate a ranked gene list, and a threshold of q<10% and fold-change >2.0 was then used to select the most highly significant genes that were down regulated in FR-treated versus vehicle control cells. This list was used as signature gene sets for Gene Ontology (GO) analysis and Gene Set Enrichment Analysis (GSEA) (45). […] Significant gene sets from GSEA analyses were combined such that genes associated with multiple related signatures were only counted once and each gene was assigned only to a single combined groupbased on the signature with the highest enrichment score for that gene. Significant gene expression changes were validated in all three UM cell lines by qPCR using fast SYBR Green Mastermix (Fisher Scientific) following the manufacturers' protocol. GAPDH was used as an endogenous control.

OCM-1A UM cells = assay: qPCR validation of FR target genes; type: cell-based, Human; settings: OCM-1A cells; FIG. 10
Experimental: as §1, §2

OCM-1A cells = assay: Flow cytometry of DNA content (proliferation and apoptosis); settings: 3 d, FIG. 4C-D
Experimental: Cells were cultured at 37.0 in 5% CO2. […] Cell lines were grown in RPMI 1640 medium (Life Technologies, Carlsbad, Calif.) supplemented with 10% FBS and antibiotics. […] Flow cytometry for analysis of cell proliferation and apoptosis was performed at the Siteman Cancer Center Flow Cytometry Core on a FACScan analyzer (BD Biosciences, San Diego Calif., USA) using a standard propidium iodide staining protocol as described previously (44).

In the case of `C=C1C(=O)N[C@@H](C)C(=O)N(C)[C@@H](C)C(=O)N[C@H]([C@@H](OC(=O)[C@@H](NC(=O)CC)[C@H](O)C(C)C)C(C)C)C(=O)N(C)[C@@H]([C@H](C)OC)C(=O)O[C@H](C(C)C)[C@H](NC(C)=O)C(=O)O[C@H](Cc2ccccc2)C(=O)N1C` [FR, [(1S)-1-[(3S,6R,9S,12S,18R,21S,22R)-21-acetamido-18-benzyl-3-[(1S)-1-methoxyethyl]-4,9,10,12,16-pentamethyl-15-methylidene-2,5,8,11,14,17,20-heptaoxo-22-propan-2-yl-1,19-dioxa-4,7,10,13,16-pentazacyclodocos-6-yl]-2-methylpropyl] (2S,3R)-3-hydroxy-4-methyl-2-(propanoylamino)pentanoate] (Ac-[X1][dPhLac][NMeDha]A[NMeA][X2](Leu(3R-OH,Nα-propionyl))[NMeaThr](Me); ester 1-C), the “effect on interaction with the RGS domain of LARG” value [1] is reported as “lack of effect”, the “fold less potent than toward Gαi/q, nucleotide exchange” value (Gαi/q(R54K)) is reported as ~10 fold and the BBC3/PUMA expression decrease (92.1 UM cells [2]) is reported as 3.5 fold. The PMAIP1/NOXA expression decrease (92.1 UM cells [2]) was 2.5 fold, the “p21CIP1 (CDKN1A) expression, down” value (92.1 UM cells [2]) was 3.0 fold and the “expression of PMP22 and DCT (qPCR)” value (92.1 UM cells [3]) was “significantly upregulated”. For the same molecule, the “expression of PRC2 targets ADRA2A, HAND2, SCARF2 and WT1 (qPCR)” value (92.1 UM cells [3]) was “significant down-regulation”, the “expression of PMP22 and DCT (qPCR)” value (OCM-1A UM cells) was “no effect” and the “expression of PRC2 targets ADRA2A, HAND2, SCARF2 and WT1 (qPCR)” value (OCM-1A UM cells) was “unaffected; also recorded: no effect”. For the same molecule, the “cell cycle inhibition and apoptosis” value (OCM-1A cells) was “no effect”.
